# How the values were obtained:
# Format in all cases: cell-based
# Wnt activity = Wnt activity screening assay, Sp5-Luc reporter gene in SW480 cells; conditions: Homo sapiens; for EC50: Sp5-Luc reporter, SW480 cells, overnight incubation; for inhibition at 10 µM: SW480, read-out: percent inhibition at 10 μM
# Text: The screening assay for Wnt activity is described as follows. Reporter cell lines can be generated by stably transducing cancer cell lines (e.g., colon cancer) or primary cells (e.g., IEC-6 intestinal cells) with a lentiviral construct that includes a Wnt-responsive promoter driving expression of the firefly luciferase gene.
# SW480 colon carcinoma cells were transduced with a lentiviral vector expressing luciferase with a human Sp5 promoter consisting of a sequence of eight TCF/LEF binding sites. SW480 cells stably expressing the Sp5-Luc reporter gene and a hygromycin resistance gene were selected by treatment with 150 μg/mL of hygromycin for 7 days. These stably transduced SW480 cells were expanded in cell culture and used for all further screening activities. […] For Sp5-Luc reporter gene assays, the cells were plated at 4,000 cells/well in 384-well plates with medium containing 1% fetal bovine serum and incubated overnight at 37° C. and 5% CO2. Following incubation, 20 μl of BrightGlo luminescence reagent (Promega) was added to each well of the 384-well assay plates. The plates were placed on an orbital shaker for 2 min and then luminescence was quantified using the Envision (Perkin Elmer) plate reader. Readings were normalized to DMSO only treated cells, and normalized activities were utilized for EC50 calculations using the dose-response log (inhibitor) vs. response -variable slope (four parameters) nonlinear regression feature available in GraphPad Prism 5.0 (or Dotmatics).
# SW480 colon cancer cells = test: Cell viability assay (CellTiter-Blue) in SW480 colon cancer cells; conditions: Homo sapiens; for EC50: 96 h, SW480 cell viability, four days, CellTiter-Blue; for inhibition at 10 µM: SW480, read-out: percent inhibition at 10 μM
# Protocol: Representative compounds were screened using the following assay procedure to assess the effect on cell viability as described below.
# Approximately 2×10^3 SW480 colon cancer cells were seeded into each well and allowed to incubate in the presence or absence of compound for four days at 37° C./5% CO2. Eight replicates of DMSO-treated cells served as controls and cells treated with compound were performed in duplicate.
# After incubation, 20 μL of CellTiter-Blue (Promega) was added to each well allowed to incubate for approximately 3 hours. This reagent was a buffered solution which contains resazurin, metabolically active cells were able to reduce rezarurin (blue) into resorufin (pink) which was highly fluorescent. This measured fluorescence was used as a readout for cell viability.
# [1] = test system: primary human fibroblasts derived from IPF patients (LL29 cells); test: Inhibition of the fibrotic process: αSMA staining in TGF-β1 treated LL29 fibroblasts; conditions: Fibroblast; for EC50: 96 h, LL29 cells, TGF-β1 20 ng/mL, 4 days, % αSMA positive cells; for inhibition at 10 µM: read-out: percent inhibition at 10 μM
# Protocol: Representative compounds were screened using primary human fibroblasts (derived from IPF patients) treated with TGF-β1 to determine their ability to inhibit the fibrotic process.
# LL29 cells are plated at 1,500 cells/well in 80 μL/well F12 medium supplemented with 1% Fetal Bovine Serum. […] Wells treated with TGF-β1 and containing DMSO were used as controls. […] Following incubation for 4 days, SYTOX green nucleic acid stain (Life Technologies [Thermo Fisher Scientific]) was added to the wells at a final concentration of 1 μM and incubated at room temperature for 30 min.
# IL-6 = IL-6 inhibition in LPS-stimulated THP-1 cells (HTRF); conditions: Homo sapiens; for inhibition at 10 µM: THP-1, read-out: percent inhibition at 10 μM; for EC50: THP-1 cells, LPS 500 ng/mL, 22 hours, IL6 HTRF
# Protocol: THP-1 cells were cultured in basal media with 1% FBS for 24 hours before the start of the assay. […] THP-1 cells were plated at 5000 cells/well in the 384-well plates and incubated at 37° C. for 2 h. 500 ng/mL of LPS was added after 2 hours and cells were incubated for another 22 hours at 37° C. Plates were spun in a centrifuge for 1 minute at […] and a mixture of anti-IL6 XL665, and anti-IL6 Cryptate diluted in reconstitution buffer (Cisbio Inc.) was added to each well. Following incubation for 3 hrs at room temperature, Homogeneous Time-Resolved Fluorescence (HTRF) was measured using the Envision (Perkin Elmer) at 665 nm and […]. The ratio of fluorescence at 665 nm to 620 nm was used as a readout for IL6 quantification. All samples were processed in duplicate. Readings were normalized to DMSO treated cells and normalized activities were utilized for EC50 calculations using the dose-response log (inhibitor) vs. response -variable slope (four parameters) nonlinear regression feature available in GraphPad Prism 5.0 (or Dotmatics).
Compound,EC50 (Wnt activity) [µM],EC50 (SW480 colon cancer cells) [µM],EC50 [1] [µM],inhibition at 10 µM (IL-6) [%],EC50 (IL-6) [µM],inhibition at 10 µM (SW480 colon cancer cells) [%],inhibition at 10 µM (Wnt activity) [%],inhibition at 10 µM [1] [%]
"c1cc(-c2cc3c(-c4cc5c(N6CCCCC6)cncc5[nH]4)n[nH]c3cn2)ccn1 [Compound 186, 3-(4-(Piperidin-1-yl)-1H-pyrrolo[2,3-c]pyridin-2-yl)-5-(pyridin-4-yl)-1H-pyrazolo[3,4-c]pyridine]",5.51,3.95,4.87,20.1,> 10,,,
"CN(C)c1cncc(-c2cc3c(-c4cc5ccncc5[nH]4)n[nH]c3cn2)c1 [Compound 259, 5-(3-(1H-Pyrrolo[2,3-c]pyridin-2-yl)-1H-pyrazolo[3,4-c]pyridin-5-yl)-N,N-dimethylpyridin-3-amine]",2.86,0.82,0.606,,3.58,,,
"CN(C)Cc1cncc(-c2cc3c(-c4cc5ccncc5[nH]4)n[nH]c3cn2)c1 [Compound 265, 1-(5-(3-(1H-Pyrrolo[2,3-c]pyridin-2-yl)-1H-pyrazolo[3,4-c]pyridin-5-yl)pyridin-3-yl)-N,N-dimethylmethanamine]",2.54,2.65,1.48,,3.11,,,
"O=C(Nc1cncc(-c2cc3c(-c4cc5ccncc5[nH]4)n[nH]c3cn2)c1)C1CC1 [Compound 272, N-(5-(3-(1H-Pyrrolo[2,3-c]pyridin-2-yl)-1H-pyrazolo[3,4-c]pyridin-5-yl)pyridin-3-yl)cyclopropanecarboxamide]",0.977,> 10,0.467,,3.14,29.9,,
"c1cc2cc(-c3n[nH]c4cnc(-c5cncc(CNCC6CCCC6)c5)cc34)[nH]c2cn1 [Compound 277, 1-(5-(3-(1H-Pyrrolo[2,3-c]pyridin-2-yl)-1H-pyrazolo[3,4-c]pyridin-5-yl)pyridin-3-yl)-N-(cyclopentylmethyl)methanamine]",3.48,3.96,1.81,,3.58,,,
"Cc1ccncc1-c1cc2c(-c3cc4c(-c5ccoc5)cncc4[nH]3)n[nH]c2cn1 [Compound 313, 3-(4-(Furan-3-yl)-1H-pyrrolo[2,3-c]pyridin-2-yl)-5-(4-methylpyridin-3-yl)-1H-pyrazolo[3,4-c]pyridine]",1.59,1.74,0.599,,4.27,,,
"CC(C)C(=O)Nc1cncc(-c2cc3c(-c4cc5c(-c6ccoc6)cncc5[nH]4)n[nH]c3cn2)c1 [Compound 317, N-(5-(3-(4-(Furan-3-yl)-1H-pyrrolo[2,3-c]pyridin-2-yl)-1H-pyrazolo[3,4-c]pyridin-5-yl)pyridin-3-yl)isobutyramide]",3.65,> 10,4.88,,1,0,,
"FC1(F)CCN(Cc2cncc(-c3cc4c(-c5cc6c(-c7cccs7)cncc6[nH]5)n[nH]c4cn3)c2)C1 [Compound 362, 5-(5-((3,3-Difluoropyrrolidin-1-yl)methyl)pyridin-3-yl)-3-(4-(thiophen-2-yl)-1H-pyrrolo[2,3-c]pyridin-2-yl)-1H-pyrazolo[3,4-c]pyridine]",5.24,4.1,1.16,,1.32,,,
"CC(C)(C)CC(=O)Nc1cncc(-c2cc3c(-c4cc5c(-c6cc(F)cc(CNS(C)(=O)=O)c6)cncc5[nH]4)n[nH]c3cn2)c1 [Compound 492, N-(5-(3-(4-(3-Fluoro-5-(methylsulfonamidomethyl)phenyl)-1H-pyrrolo[2,3-c]pyridin-2-yl)-1H-pyrazolo[3,4-c]pyridin-5-yl)pyridin-3-yl)-3,3-dimethylbutanamide]",> 10,> 10,> 10,29,> 10,16.3,14.6,0
"CS(=O)(=O)NCc1cc(F)cc(-c2cncc3[nH]c(-c4n[nH]c5cnc(-c6cncc(NC(=O)C7CCCCC7)c6)cc45)cc23)c1 [Compound 499, N-(5-(3-(4-(3-Fluoro-5-(methylsulfonamidomethyl)phenyl)-1H-pyrrolo[2,3-c]pyridin-2-yl)-1H-pyrazolo[3,4-c]pyridin-5-yl)pyridin-3-yl)cyclohexanecarboxamide]",> 10,> 10,> 10,36.6,> 10,15.5,11.3,0
"CS(=O)(=O)NCc1cc(F)cc(-c2cncc3[nH]c(-c4n[nH]c5cnc(-c6ccccn6)cc45)cc23)c1 [Compound 504, N-(3-Fluoro-5-(2-(5-(pyridin-2-yl)-1H-pyrazolo[3,4-c]pyridin-3-yl)-1H-pyrrolo[2,3-c]pyridin-4-yl)benzyl)methanesulfonamide]",2.38,2.98,2.01,,0.943,,,
"Fc1ccccc1-c1cncc2[nH]c(-c3n[nH]c4cnc(-c5cn[nH]c5)cc34)cc12 [Compound 539, 3-(4-(2-Fluorophenyl)-1H-pyrrolo[2,3-c]pyridin-2-yl)-5-(1H-pyrazol-4-yl)-1H-pyrazolo[3,4-c]pyridine]",> 10,> 10,2.43,0,> 10,3.6,8.6,
"c1cncc(-c2cncc3[nH]c(-c4n[nH]c5cnc(C6CCNCC6)cc45)cc23)c1 [Compound 553, 5-(Piperidin-4-yl)-3-(4-(pyridin-3-yl)-1H-pyrrolo[2,3-c]pyridin-2-yl)-1H-pyrazolo[3,4-c]pyridine]",> 10,> 10,1.19,18.1,> 10,11,8.3,
"c1ncc(-c2cc3c(-c4cc5c(N6CCCCC6)cncc5[nH]4)n[nH]c3cn2)cc1OC1CCCCC1 [Compound 607, 5-(5-(Cyclohexyloxy)pyridin-3-yl)-3-(4-(piperidin-1-yl)-1H-pyrrolo[2,3-c]pyridin-2-yl)-1H-pyrazolo[3,4-c]pyridine]",1.34,1.3,0.532,,3.17,,,
"CN(C)CCOc1cncc(-c2cc3c(-c4cc5c(-c6cccs6)cncc5[nH]4)n[nH]c3cn2)c1 [Compound 707, N,N-Dimethyl-2-((5-(3-(4-(thiophen-2-yl)-1H-pyrrolo[2,3-c]pyridin-2-yl)-1H-pyrazolo[3,4-c]pyridin-5-yl)pyridin-3-yl)oxy)ethan-1-amine]",> 10,> 10,5.1,41.3,> 10,0,5,
"Cn1cc(-c2cc3c(-c4cc5c(-c6cc(F)cc(CNS(C)(=O)=O)c6)cncc5[nH]4)n[nH]c3cn2)cn1 [Compound 764, N-(3-Fluoro-5-(2-(5-(1-methyl-1H-pyrazol-4-yl)-1H-pyrazolo[3,4-c]pyridin-3-yl)-1H-pyrrolo[2,3-c]pyridin-4-yl)benzyl)methanesulfonamide]",1.03,> 10,2.42,20,> 10,9.3,,
